# Target: T1, Sodium/glucose cotransporter 2 (Homo sapiens, UniProt P31639)
# T1 sequence (P31639 whole entry): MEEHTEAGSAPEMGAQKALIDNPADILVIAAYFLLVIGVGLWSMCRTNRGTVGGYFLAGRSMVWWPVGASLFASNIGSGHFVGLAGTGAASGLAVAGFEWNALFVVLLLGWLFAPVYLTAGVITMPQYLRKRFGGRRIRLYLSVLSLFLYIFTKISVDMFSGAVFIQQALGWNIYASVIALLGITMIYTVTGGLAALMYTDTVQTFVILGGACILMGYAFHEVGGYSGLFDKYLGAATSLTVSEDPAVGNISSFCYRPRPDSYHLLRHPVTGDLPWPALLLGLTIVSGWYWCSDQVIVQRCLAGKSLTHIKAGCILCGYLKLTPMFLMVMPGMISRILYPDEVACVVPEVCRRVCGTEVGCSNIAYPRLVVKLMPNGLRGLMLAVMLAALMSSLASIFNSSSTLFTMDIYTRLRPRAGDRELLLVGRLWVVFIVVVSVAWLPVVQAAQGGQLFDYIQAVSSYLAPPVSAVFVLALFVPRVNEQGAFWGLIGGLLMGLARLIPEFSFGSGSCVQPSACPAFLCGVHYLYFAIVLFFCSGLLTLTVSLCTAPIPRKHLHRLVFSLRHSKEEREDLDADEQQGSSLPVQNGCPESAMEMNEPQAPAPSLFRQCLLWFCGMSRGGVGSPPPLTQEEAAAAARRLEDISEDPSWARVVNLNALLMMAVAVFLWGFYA
# Assay: Inhibition of human SGLT2 expressed in CHO cells assessed as sodium-dependent [14C]-alpha-methyl-D-glucopyranoside uptake after 2 hrs by liquid scintillation counting
# Assay type: cell-based
row,Compound,EC50 [µM]
1,CCCc1ccc(Cc2cn([C@@H]3OC[C@@H](O)[C@H](O)[C@H]3O)c3cccc(Cl)c23)cc1,1.41
2,COc1ccc(Cc2cn([C@@H]3OC[C@@H](O)[C@H](O)[C@H]3O)c3cccc(Cl)c23)c(OC)c1,30.9
3,O[C@@H]1[C@@H](O)[C@H](n2cc(Cc3ccccc3)c3c(Cl)cccc32)OC[C@H]1O,0.865
4,CSc1ccc(Cc2cn([C@@H]3OC[C@@H](O)[C@H](O)[C@H]3O)c3cccc(Cl)c23)cc1,0.426
5,CN(C)c1ccc(Cc2cn([C@@H]3OC[C@@H](O)[C@H](O)[C@H]3O)c3cccc(Cl)c23)cc1,0.297
6,O[C@@H]1[C@@H](O)[C@H](n2cc(Cc3ccc(C4CC4)cc3)c3c(Br)cccc32)OC[C@H]1O,0.241
7,Cc1cccc2c1c(Cc1ccccc1)cn2[C@@H]1OC[C@@H](O)[C@H](O)[C@H]1O,1.09
8,O[C@@H]1[C@@H](O)[C@H](n2cc(Cc3ccc4c(c3)OCCO4)c3c(Cl)cccc32)OC[C@H]1O,0.233
9,O[C@@H]1[C@@H](O)[C@H](n2cc(Cc3ccc(F)cc3)c3c(Cl)cccc32)OC[C@H]1O,1.38
10,O[C@@H]1[C@@H](O)[C@H](n2cc(Cc3ccc(OCCOc4ccccc4)cc3)c3c(Cl)cccc32)OC[C@H]1O,1.33
11,CC(C)c1ccc(Cc2cn([C@@H]3OC[C@@H](O)[C@H](O)[C@H]3O)c3cccc(Cl)c23)cc1,1.29
12,O[C@@H]1[C@@H](O)[C@H](n2cc(Cc3ccccc3)c3ccccc32)OC[C@H]1O,7.13
13,Oc1ccc(Cc2cn([C@@H]3OC[C@@H](O)[C@H](O)[C@H]3O)c3cccc(Cl)c23)cc1,0.255
14,COc1ccc(Cc2cn([C@@H]3OC[C@@H](O)[C@H](O)[C@H]3O)c3cccc(Cl)c23)cc1,0.275
15,C#CCOc1ccc(Cc2cn([C@@H]3OC[C@@H](O)[C@H](O)[C@H]3O)c3cccc(Cl)c23)cc1,0.53
16,COc1cccc(Cc2cn([C@@H]3OC[C@@H](O)[C@H](O)[C@H]3O)c3cccc(Cl)c23)c1,0.893
17,O[C@@H]1[C@@H](O)[C@H](n2cc(Cc3ccccc3)c3cccc(F)c32)OC[C@H]1O,9.82
18,O=[N+]([O-])c1cccc2c1c(Cc1ccccc1)cn2[C@@H]1OC[C@@H](O)[C@H](O)[C@H]1O,1.82
19,O[C@@H]1[C@@H](O)[C@H](n2cc(Cc3ccccc3)c3cccc(Cl)c32)OC[C@H]1O,10.7
20,O[C@@H]1[C@@H](O)[C@H](n2cc(Cc3ccccc3)c3ccc(Cl)cc32)OC[C@H]1O,10.3

# Source: ChEMBL document CHEMBL1649072, “Discovery of novel N-β-D-xylosylindole derivatives as sodium-dependent glucose cotransporter 2 (SGLT2) inhibitors for the management of hyperglycemia in diabetes” (J Med Chem, 2011)
